Bridge positions count the residues as written; N and C are the ends. Square brackets hold non-standard residues; d marks the D form. Peptide text beside a SMILES is read from it. Bip = N[C@@H](Cc1ccc(-c2ccccc2)cc1)C(=O)O; Phe(3-Cl) = N[C@@H](Cc1cccc(Cl)c1)C(=O)O; Phe(3-OMe) = COc1cccc(C[C@H](N)C(=O)O)c1; Phe(3-Me) = Cc1cccc(C[C@H](N)C(=O)O)c1; Cha = N[C@@H](CC1CCCCC1)C(=O)O; Cit = NC(=O)NCCC[C@H](N)C(=O)O; NMeA = CN[C@@H](C)C(=O)O; Nle = CCCC[C@H](N)C(=O)O; Orn = NCCC[C@H](N)C(=O)O; Dab = NCC[C@H](N)C(=O)O
Biological target: T1, PE-labeled human PD-L1-Ig binding to Jurkat cell line over-expressing human PD-1 (Jurkat-PD-1) (Homo sapiens, UniProt Q15116)
T1 construct: expressed in transfected cells; host or cells: Jurkat
Assay: Jurkat-PD-1 Cell Binding High-Content Screening Assay (CBA): Method 1
Conditions: Jurkat-hPD-1 cells, PE-labeled PD-L1-Ig 20 nM final; read-out: Jurkat HPDL1 PD1 IC50 (uM) (Method 1)

T1 sequence (Q15116 25-288): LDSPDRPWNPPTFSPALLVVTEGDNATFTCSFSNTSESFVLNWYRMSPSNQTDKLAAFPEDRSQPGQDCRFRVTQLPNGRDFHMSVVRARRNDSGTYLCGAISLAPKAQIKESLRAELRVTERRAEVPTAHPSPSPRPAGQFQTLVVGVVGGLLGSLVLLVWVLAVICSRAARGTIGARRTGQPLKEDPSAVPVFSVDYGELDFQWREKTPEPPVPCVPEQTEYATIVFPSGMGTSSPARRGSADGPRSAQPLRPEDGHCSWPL

SMILES | IC50 [µM]
CC(C)C[C@@H]1NC(=O)[C@H](CCN)NC(=O)[C@@H](CC(C)C)NC(=O)[C@H](C)N(C)C(=O)[C@H](Cc2ccccc2)NC(=O)[C@H](Cc2ccc(-c3ccccc3)cc2)NC(=O)[C@H](C(C)C)NC(=O)[C@H](Cc2c[nH]c3ccccc23)NC(=O)[C@H](CC(=O)O)NC(=O)[C@H](Cc2ccc(O)cc2)NC(=O)[C@H](CC(N)=O)NC(=O)CSC[C@@H](C(=O)N[C@@H](C)C(N)=O)NC(=O)[C@H]([C@@H](C)O)NC(=O)[C@H](C(C)C)NC1=O [Compound 1272] ({CH2CO}-NYDWV[Bip]F[NMeA][dL][Dab]LVTCA-NH2; thioether N-14) | 0.16
Cc1cccc(C[C@@H]2NC(=O)[C@H](CC(=O)O)NC(=O)[C@H](Cc3ccc(O)cc3)NC(=O)[C@H](CC(N)=O)NC(=O)CSC[C@@H](C(=O)N[C@@H](C)C(N)=O)NC(=O)[C@H]([C@@H](C)O)NC(=O)[C@H](C(C)C)NC(=O)[C@H](CC(C)C)NC(=O)[C@H](CCCNC(=N)N)NC(=O)[C@@H](CC(C)C)NC(=O)[C@H](C)N(C)C(=O)[C@H](C(C)C)NC(=O)[C@H](Cc3ccc(-c4ccccc4)cc3)NC(=O)[C@H](C(C)C)NC2=O)c1 [Compound 1273] ({CH2CO}-NYD[Phe(3-Me)]V[Bip]V[NMeA][dL]RLVTCA-NH2; thioether N-14) | 0.01
CC(C)C[C@@H]1NC(=O)[C@H](CCCNC(=N)N)NC(=O)[C@@H](CC(C)C)NC(=O)[C@H](C)N(C)C(=O)[C@H](C(C)C)NC(=O)[C@H](Cc2ccc(-c3ccccc3)cc2)NC(=O)[C@H](C(C)C)NC(=O)[C@H](Cc2cccc(Cl)c2)NC(=O)[C@H](CC(=O)O)NC(=O)[C@H](Cc2ccc(O)cc2)NC(=O)[C@H](CC(N)=O)NC(=O)CSC[C@@H](C(=O)N[C@@H](C)C(N)=O)NC(=O)[C@H]([C@@H](C)O)NC(=O)[C@H](C(C)C)NC1=O [Compound 1274] ({CH2CO}-NYD[Phe(3-Cl)]V[Bip]V[NMeA][dL]RLVTCA-NH2; thioether N-14) | 0.03
CC(C)C[C@H]1NC(=O)[C@H](C)N(C)C(=O)[C@H](CCCNC(=N)N)NC(=O)[C@H](Cc2ccc(-c3ccccc3)cc2)NC(=O)[C@H](C(C)C)NC(=O)[C@H](Cc2c[nH]c3ccccc23)NC(=O)[C@H](CC(=O)O)NC(=O)[C@H](Cc2ccc(O)cc2)NC(=O)[C@H](CC(N)=O)NC(=O)CSC[C@@H](C(=O)N[C@@H](C)C(N)=O)NC(=O)[C@H]([C@@H](C)O)NC(=O)[C@H](C(C)C)NC(=O)[C@H](CC2CCCCC2)NC(=O)[C@H](CCCNC(=N)N)NC1=O [Compound 1275] ({CH2CO}-NYDWV[Bip]R[NMeA][dL]R[Cha]VTCA-NH2; thioether N-14) | 0.03
CC(C)C[C@H]1NC(=O)[C@H](C)N(C)C(=O)[C@H](CCCN)NC(=O)[C@H](Cc2ccc(-c3ccccc3)cc2)NC(=O)[C@H](C(C)C)NC(=O)[C@H](Cc2c[nH]c3ccccc23)NC(=O)[C@H](CC(=O)O)NC(=O)[C@H](Cc2ccc(O)cc2)NC(=O)[C@H](CC(N)=O)NC(=O)CSC[C@@H](C(=O)N[C@@H](C)C(N)=O)NC(=O)[C@H]([C@@H](C)O)NC(=O)[C@H](C(C)C)NC(=O)[C@H](CC2CCCCC2)NC(=O)[C@H](CCCNC(=N)N)NC1=O [Compound 1276] ({CH2CO}-NYDWV[Bip][Orn][NMeA][dL]R[Cha]VTCA-NH2; thioether N-14) | 0.03
COc1cccc(C[C@@H]2NC(=O)[C@H](CC(=O)O)NC(=O)[C@H](Cc3ccc(O)cc3)NC(=O)[C@H](CC(N)=O)NC(=O)CSC[C@@H](C(=O)N[C@@H](C)C(N)=O)NC(=O)[C@H]([C@@H](C)O)NC(=O)[C@H](C(C)C)NC(=O)[C@H](CC(C)C)NC(=O)[C@H](CCN)NC(=O)[C@@H](CC(C)C)NC(=O)[C@H](C)N(C)C(=O)[C@H](C(C)C)NC(=O)[C@H](Cc3ccc(-c4ccccc4)cc3)NC(=O)[C@H](C(C)C)NC2=O)c1 [Compound 1277] ({CH2CO}-NYD[Phe(3-OMe)]V[Bip]V[NMeA][dL][Dab]LVTCA-NH2; thioether N-14) | 0.02
CC(C)C[C@H]1NC(=O)[C@H](C)N(C)C(=O)[C@H](CCCN)NC(=O)[C@H](Cc2ccc(-c3ccccc3)cc2)NC(=O)[C@H](C(C)C)NC(=O)[C@H](Cc2c[nH]c3ccccc23)NC(=O)[C@H](CC(=O)O)NC(=O)[C@H](Cc2ccc(O)cc2)NC(=O)[C@H](CC(N)=O)NC(=O)CSC[C@@H](C(=O)N[C@@H](C)C(N)=O)NC(=O)[C@H]([C@@H](C)O)NC(=O)[C@H](C(C)C)NC(=O)[C@H](CC2CCCCC2)NC(=O)[C@H](CCN)NC1=O [Compound 1278] ({CH2CO}-NYDWV[Bip][Orn][NMeA][dL][Dab][Cha]VTCA-NH2; thioether N-14) | 0.01
CC(C)C[C@@H]1NC(=O)[C@H](CCN)NC(=O)[C@@H](CC(C)C)NC(=O)[C@H]2CCCN2C(=O)[C@H](C(C)C)NC(=O)[C@H](Cc2ccc(-c3ccccc3)cc2)NC(=O)[C@H](C(C)C)NC(=O)[C@H](Cc2c[nH]c3ccccc23)NC(=O)[C@H](CC(=O)O)NC(=O)[C@H](Cc2ccc(O)cc2)NC(=O)[C@H](CC(N)=O)NC(=O)CSC[C@@H](C(=O)N[C@@H](C)C(N)=O)NC(=O)[C@H]([C@@H](C)O)NC(=O)[C@H](C(C)C)NC1=O [Compound 1279] ({CH2CO}-NYDWV[Bip]V[dP][dL][Dab]LVTCA-NH2; thioether N-14) | 0.02
CC(C)C[C@@H]1NC(=O)[C@H](CCCCN)NC(=O)[C@@H](CC(C)C)NC(=O)[C@H](C)N(C)C(=O)[C@H](CCCNC(=N)N)NC(=O)[C@H](Cc2ccc(-c3ccccc3)cc2)NC(=O)[C@H](C(C)C)NC(=O)[C@H](Cc2c[nH]c3ccccc23)NC(=O)[C@H](CC(=O)O)NC(=O)[C@H](Cc2ccc(O)cc2)NC(=O)[C@H](CC(N)=O)NC(=O)CSC[C@@H](C(=O)N[C@@H](C)C(N)=O)NC(=O)[C@H]([C@@H](C)O)NC(=O)[C@H](C(C)C)NC1=O [Compound 1280] ({CH2CO}-NYDWV[Bip]R[NMeA][dL]KLVTCA-NH2; thioether N-14) | 0.08
CC(C)C[C@@H]1NC(=O)[C@H](CCN)NC(=O)[C@@H](CC(C)C)NC(=O)[C@H](C)N(C)C(=O)CNC(=O)[C@H](Cc2ccc(-c3ccccc3)cc2)NC(=O)[C@H](C(C)C)NC(=O)[C@H](Cc2c[nH]c3ccccc23)NC(=O)[C@H](CC(=O)O)NC(=O)[C@H](Cc2ccc(O)cc2)NC(=O)[C@H](CC(N)=O)NC(=O)CSC[C@@H](C(=O)N[C@@H](C)C(N)=O)NC(=O)[C@H]([C@@H](C)O)NC(=O)[C@H](C(C)C)NC1=O [Compound 1281] ({CH2CO}-NYDWV[Bip]G[NMeA][dL][Dab]LVTCA-NH2; thioether N-14) | 0.33
CCCC[C@@H]1NC(=O)[C@H](CCCNC(=N)N)NC(=O)[C@@H](CC(C)C)NC(=O)[C@H](C)N(C)C(=O)[C@H](CCCNC(=N)N)NC(=O)[C@H](Cc2ccc(-c3ccccc3)cc2)NC(=O)[C@H](C(C)C)NC(=O)[C@H](Cc2c[nH]c3ccccc23)NC(=O)[C@H](CC(=O)O)NC(=O)[C@H](Cc2ccc(O)cc2)NC(=O)[C@H](CC(N)=O)NC(=O)CSC[C@@H](C(=O)N[C@@H](C)C(N)=O)NC(=O)[C@H]([C@@H](C)O)NC(=O)[C@H](C(C)C)NC1=O [Compound 1282] ({CH2CO}-NYDWV[Bip]R[NMeA][dL]R[Nle]VTCA-NH2; thioether N-14) | 0.13

Second part, the compound after the results:

IC50 [µM] | SMILES
0.04 | CCCC[C@@H]1NC(=O)[C@H](CCN)NC(=O)[C@@H](CC(C)C)NC(=O)[C@H](C)N(C)C(=O)[C@H](CCCNC(=N)N)NC(=O)[C@H](Cc2ccc(-c3ccccc3)cc2)NC(=O)[C@H](C(C)C)NC(=O)[C@H](Cc2c[nH]c3ccccc23)NC(=O)[C@H](CC(=O)O)NC(=O)[C@H](Cc2ccc(O)cc2)NC(=O)[C@H](CC(N)=O)NC(=O)CSC[C@@H](C(=O)N[C@@H](C)C(N)=O)NC(=O)[C@H]([C@@H](C)O)NC(=O)[C@H](C(C)C)NC1=O [Compound 1283] ({CH2CO}-NYDWV[Bip]R[NMeA][dL][Dab][Nle]VTCA-NH2; thioether N-14)
0.01 | CC(C)C[C@H]1NC(=O)[C@H](C)N(C)C(=O)[C@H](CCCNC(=N)N)NC(=O)[C@H](Cc2ccc(-c3ccccc3)cc2)NC(=O)[C@H](C(C)C)NC(=O)[C@H](Cc2c[nH]c3ccccc23)NC(=O)[C@H](CC(=O)O)NC(=O)[C@H](Cc2ccc(O)cc2)NC(=O)[C@H](CC(N)=O)NC(=O)CSC[C@@H](C(=O)N[C@@H](C)C(N)=O)NC(=O)[C@H]([C@@H](C)O)NC(=O)[C@H](C(C)C)NC(=O)[C@H](CC2CCCCC2)NC(=O)[C@H](CCN)NC1=O [Compound 1284] ({CH2CO}-NYDWV[Bip]R[NMeA][dL][Dab][Cha]VTCA-NH2; thioether N-14)
0.05 | CCCC[C@@H]1NC(=O)[C@H](CCCNC(=N)N)NC(=O)[C@@H](CC(C)C)NC(=O)[C@H](C)N(C)C(=O)[C@H](CCCNC(N)=O)NC(=O)[C@H](Cc2ccc(-c3ccccc3)cc2)NC(=O)[C@H](C(C)C)NC(=O)[C@H](Cc2c[nH]c3ccccc23)NC(=O)[C@H](CC(=O)O)NC(=O)[C@H](Cc2ccc(O)cc2)NC(=O)[C@H](CC(N)=O)NC(=O)CSC[C@@H](C(=O)N[C@@H](C)C(N)=O)NC(=O)[C@H]([C@@H](C)O)NC(=O)[C@H](C(C)C)NC1=O [Compound 1285] ({CH2CO}-NYDWV[Bip][Cit][NMeA][dL]R[Nle]VTCA-NH2; thioether N-14)
0.01 | CC(C)C[C@H]1NC(=O)[C@H](C)N(C)C(=O)[C@H](CCCNC(N)=O)NC(=O)[C@H](Cc2ccc(-c3ccccc3)cc2)NC(=O)[C@H](C(C)C)NC(=O)[C@H](Cc2c[nH]c3ccccc23)NC(=O)[C@H](CC(=O)O)NC(=O)[C@H](Cc2ccc(O)cc2)NC(=O)[C@H](CC(N)=O)NC(=O)CSC[C@@H](C(=O)N[C@@H](C)C(N)=O)NC(=O)[C@H]([C@@H](C)O)NC(=O)[C@H](C(C)C)NC(=O)[C@H](CC2CCCCC2)NC(=O)[C@H](CCN)NC1=O [Compound 1287] ({CH2CO}-NYDWV[Bip][Cit][NMeA][dL][Dab][Cha]VTCA-NH2; thioether N-14)
0.08 | CC(C)C[C@@H]1NC(=O)[C@H](CCCNC(=N)N)NC(=O)[C@@H](CC(C)C)NC(=O)[C@H](C)N(C)C(=O)[C@H](CCCN)NC(=O)[C@H](Cc2ccc(-c3ccccc3)cc2)NC(=O)[C@H](C(C)C)NC(=O)[C@H](Cc2c[nH]c3ccccc23)NC(=O)[C@H](CC(=O)O)NC(=O)[C@H](Cc2ccc(O)cc2)NC(=O)[C@H](CC(N)=O)NC(=O)CSC[C@@H](C(=O)N[C@@H](C)C(N)=O)NC(=O)[C@H]([C@@H](C)O)NC(=O)[C@H](C(C)C)NC1=O [Compound 1288] ({CH2CO}-NYDWV[Bip][Orn][NMeA][dL]RLVTCA-NH2; thioether N-14)

Reference: US20240409585A1, “MACROCYCLIC IMMUNOMODULATORS” (priority 2021, published 2024)
